# Experimental data from ChEMBL document CHEMBL5360570, “Discovery of pyrazolo[3,4-b]pyridine derivatives as novel and potent Mps1 inhibitors for the treatment of cancer” (Eur J Med Chem, 2023).
# Columns and labels:
# [1] = tested on: ALK tyrosine kinase receptor (Homo sapiens), Q9UM73 [C1156Y]; assay: Inhibition of ALK C1156Y mutant (unknown origin) assessed as residual activity at 1 uM relative to control
# [2] = tested on: MV4-11; assay: Antiproliferative activity against human MV4-11 cells assessed inhibition of cell growth incubated for 72 hrs by CCK-8 assay; assay type: functional, cell-based; details: MV4-11, 72 h
# [3] = Toxicity in BALB/c nude mouse xenografted with human MDA-MB-468 cells assessed as change in body weight at 30 mg/kg, iv administered once daily for 21 days […]; assay type: organism-based; details: in vivo, 504 h, time 21 day
# [4] = tested on: HT-29; assay: Antiproliferative activity against human HT-29 cells assessed inhibition of cell growth incubated for 72 hrs by CCK-8 assay; assay type: functional, cell-based; details: HT-29, 72 h
# [5] = Volume of distribution at steady state in Sprague-Dawley rat at 2 mg/kg, iv measured upto 24 hrs by LC-MS/MS analysis; assay type: ADME, organism-based; details: in vivo, read-out: Vdss
# [6] = tested on: ALK tyrosine kinase receptor (Homo sapiens), Q9UM73 [G1269A]; assay: Inhibition of ALK G1269A mutant (unknown origin) assessed as residual activity at 1 uM relative to control
# [7] = molecular target: NUAK family SNF1-like kinase 2 (Homo sapiens) (UniProt Q9H093); assay: Inhibition of SNARK (unknown origin) assessed as residual activity at 1 uM relative to control
# [8] = tested on: EML4-ALK (Homo sapiens), Q9UM73+Q9HC35 [F1174L]; assay: Inhibition of ALK F1174L mutant (unknown origin)/EML4 (unknown origin) assessed as residual activity at 1 uM relative to control; assay type: protein assay
# [9] = molecular target: Receptor-type tyrosine-protein kinase FLT3 (Homo sapiens) (UniProt P36888); assay: Inhibition of FLT3 (unknown origin) assessed as residual activity at 1 uM relative to control
# [10] = MRT (0 to t) in Sprague-Dawley rat at 10 mg/kg, po measured upto 24 hrs by LC-MS/MS analysis; assay type: ADME, organism-based; details: in vivo
# [11] = Metabolic stability in human liver microsome assessed as parent compound remaining preincubated for 10 mins followed by NADPH addition and measured at 5 mins by LC-MS/MS analysis; assay type: ADME; details: liver microsomes, time 15 min, read-out: Stability
# [12] = molecular target: ALK-TFG (Homo sapiens) (UniProt Q9UM73+Q92734); assay: Inhibition of ALK-TFG (unknown origin) assessed as residual activity at 1 uM relative to control; assay type: protein assay
# [13] = Half life in Sprague-Dawley rat at 10 mg/kg, po measured upto 24 hrs by LC-MS/MS analysis; assay type: ADME, organism-based; details: in vivo
# [14] = molecular target: Serine/threonine-protein kinase SIK2 (Homo sapiens) (UniProt Q9H0K1); assay: Inhibition of SIK2 (unknown origin) assessed as residual activity at 1 uM relative to control
# [15] = Metabolic stability in human microsome assessed as intrinsic clearance preincubated for 10 mins followed by NADPH addition and measured upto 60 mins by LC-MS/MS analysis; assay type: ADME; details: microsomes, time < 70 min
# [16] = molecular target: ALK-KIF5B (Homo sapiens) (UniProt Q9UM73+P33176); assay: Inhibition of ALK-KIF5B (unknown origin) assessed as residual activity at 1 uM relative to control; assay type: protein assay
# [17] = molecular target: Leucine-rich repeat serine/threonine-protein kinase 2 (Homo sapiens) (UniProt Q5S007); assay: Inhibition of LRRK2 (unknown origin) assessed as residual activity at 1 uM relative to control
# [18] = molecular target: Macrophage colony-stimulating factor 1 receptor (Homo sapiens) (UniProt P07333); assay: Inhibition of FMS (unknown origin) assessed as residual activity at 1 uM relative to control
# [19] = MRT (0 to infinity) in Sprague-Dawley rat at 10 mg/kg, po measured upto 24 hrs by LC-MS/MS analysis; assay type: ADME, organism-based; details: in vivo
# [20] = molecular target: T1, Dual specificity protein kinase TTK (Homo sapiens, UniProt P33981); assay: Inhibition of Mps1 (unknown origin) pretreated for 10 mins followed by substrate addition and measured after 60 mins in presence of ATP by ADP-glo kinase assay
# T1 sequence (P33981 whole entry): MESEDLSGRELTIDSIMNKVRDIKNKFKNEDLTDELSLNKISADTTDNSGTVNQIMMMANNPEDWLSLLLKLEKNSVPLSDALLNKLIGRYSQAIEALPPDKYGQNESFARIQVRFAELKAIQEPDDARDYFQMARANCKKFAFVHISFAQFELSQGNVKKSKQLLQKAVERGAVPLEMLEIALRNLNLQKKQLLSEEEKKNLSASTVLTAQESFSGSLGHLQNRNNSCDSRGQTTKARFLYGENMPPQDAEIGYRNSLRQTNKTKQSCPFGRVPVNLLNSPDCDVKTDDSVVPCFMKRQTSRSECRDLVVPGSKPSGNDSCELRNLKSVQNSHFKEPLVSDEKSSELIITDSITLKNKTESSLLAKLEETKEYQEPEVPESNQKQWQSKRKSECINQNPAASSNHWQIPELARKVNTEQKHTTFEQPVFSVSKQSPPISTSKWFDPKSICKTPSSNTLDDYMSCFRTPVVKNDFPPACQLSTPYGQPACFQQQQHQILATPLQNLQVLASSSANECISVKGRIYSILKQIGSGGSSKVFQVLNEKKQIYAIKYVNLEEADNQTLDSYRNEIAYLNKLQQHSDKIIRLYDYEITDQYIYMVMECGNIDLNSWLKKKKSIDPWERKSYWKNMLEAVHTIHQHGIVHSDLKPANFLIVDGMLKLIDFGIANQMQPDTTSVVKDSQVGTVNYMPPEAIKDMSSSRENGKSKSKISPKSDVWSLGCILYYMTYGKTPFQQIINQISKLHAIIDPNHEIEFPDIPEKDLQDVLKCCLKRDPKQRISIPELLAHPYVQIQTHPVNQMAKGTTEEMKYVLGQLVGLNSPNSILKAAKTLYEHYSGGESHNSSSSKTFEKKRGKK
# [21] = Metabolic stability in human liver microsome assessed as parent compound remaining preincubated for 10 mins followed by NADPH addition and measured at 15 mins by LC-MS/MS analysis; assay type: ADME; details: liver microsomes, time 25 min, read-out: Stability
# [22] = tested on: ALK tyrosine kinase receptor (Homo sapiens), Q9UM73 [F1174L]; assay: Inhibition of ALK F1174L mutant (unknown origin) assessed as residual activity at 1 uM relative to control
# [23] = tested on: ALK tyrosine kinase receptor (Homo sapiens), Q9UM73 [L1196M]; assay: Inhibition of ALK L1196M mutant (unknown origin) assessed as residual activity at 1 uM relative to control
# [24] = tested on: ALK tyrosine kinase receptor (Homo sapiens), Q9UM73 [UNDEFINED MUTATION]; assay: Inhibition of ALK T1151/L1152 mutant (unknown origin) assessed as residual activity at 1 uM relative to control
# [25] = molecular target: Focal adhesion kinase 1 (Homo sapiens) (UniProt Q05397); assay: Inhibition of PTK2 (unknown origin) assessed as residual activity at 1 uM relative to control
# [26] = C0 in Sprague-Dawley rat at 2 mg/kg, iv measured upto 24 hrs by LC-MS/MS analysis; assay type: ADME, organism-based; details: in vivo
# Sequence of ALK tyrosine kinase receptor (Homo sapiens), Q9UM73 [UNDEFINED MUTATION] (Q9UM73 whole entry, looked up, change not shown): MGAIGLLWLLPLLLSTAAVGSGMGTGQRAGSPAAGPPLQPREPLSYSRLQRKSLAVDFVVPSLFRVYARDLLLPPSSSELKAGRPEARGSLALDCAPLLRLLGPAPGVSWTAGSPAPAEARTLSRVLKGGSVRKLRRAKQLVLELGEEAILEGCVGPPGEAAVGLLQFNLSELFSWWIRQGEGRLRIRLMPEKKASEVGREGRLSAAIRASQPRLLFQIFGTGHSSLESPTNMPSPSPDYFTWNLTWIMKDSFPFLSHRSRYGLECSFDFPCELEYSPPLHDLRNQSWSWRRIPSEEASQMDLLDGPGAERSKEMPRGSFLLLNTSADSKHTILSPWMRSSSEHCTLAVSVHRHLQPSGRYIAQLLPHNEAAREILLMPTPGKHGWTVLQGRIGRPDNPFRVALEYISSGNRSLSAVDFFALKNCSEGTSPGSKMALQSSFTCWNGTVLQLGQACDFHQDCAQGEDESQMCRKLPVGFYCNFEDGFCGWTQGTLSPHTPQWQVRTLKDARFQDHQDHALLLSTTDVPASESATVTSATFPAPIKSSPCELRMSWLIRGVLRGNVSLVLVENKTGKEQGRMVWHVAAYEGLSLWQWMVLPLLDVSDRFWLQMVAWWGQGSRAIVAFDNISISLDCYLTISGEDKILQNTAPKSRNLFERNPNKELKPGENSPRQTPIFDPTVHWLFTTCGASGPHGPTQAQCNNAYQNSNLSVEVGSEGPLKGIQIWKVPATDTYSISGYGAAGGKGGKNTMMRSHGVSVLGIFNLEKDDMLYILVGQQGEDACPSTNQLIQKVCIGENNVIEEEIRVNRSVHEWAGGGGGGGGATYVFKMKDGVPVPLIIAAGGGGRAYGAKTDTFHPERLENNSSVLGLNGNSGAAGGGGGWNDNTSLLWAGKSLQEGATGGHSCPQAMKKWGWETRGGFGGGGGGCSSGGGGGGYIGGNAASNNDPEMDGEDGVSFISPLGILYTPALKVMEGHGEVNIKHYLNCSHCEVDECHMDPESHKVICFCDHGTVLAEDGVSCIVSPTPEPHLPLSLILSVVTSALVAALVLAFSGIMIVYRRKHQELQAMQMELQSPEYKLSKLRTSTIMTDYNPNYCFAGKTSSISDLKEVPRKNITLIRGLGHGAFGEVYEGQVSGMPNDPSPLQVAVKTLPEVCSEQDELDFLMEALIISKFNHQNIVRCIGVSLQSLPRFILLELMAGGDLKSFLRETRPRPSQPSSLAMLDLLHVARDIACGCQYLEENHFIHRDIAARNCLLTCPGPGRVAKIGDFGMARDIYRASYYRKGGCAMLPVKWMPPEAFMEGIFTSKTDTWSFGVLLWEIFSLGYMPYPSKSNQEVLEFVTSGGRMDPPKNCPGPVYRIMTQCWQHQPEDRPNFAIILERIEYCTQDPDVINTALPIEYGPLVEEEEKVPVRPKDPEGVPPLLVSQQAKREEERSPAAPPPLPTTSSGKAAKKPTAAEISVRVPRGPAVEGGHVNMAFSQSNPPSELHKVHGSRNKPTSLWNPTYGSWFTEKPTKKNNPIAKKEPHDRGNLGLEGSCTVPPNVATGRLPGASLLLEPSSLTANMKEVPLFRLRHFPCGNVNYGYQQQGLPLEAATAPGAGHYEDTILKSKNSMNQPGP
# Sequence of ALK tyrosine kinase receptor (Homo sapiens), Q9UM73 [L1196M] (Q9UM73 whole entry L1196M, looked up): as the sequence (Q9UM73 whole entry, looked up, change not shown) above, with L1196M counted along it
# Sequence of ALK tyrosine kinase receptor (Homo sapiens), Q9UM73 [C1156Y] (Q9UM73 whole entry C1156Y, looked up): as the sequence (Q9UM73 whole entry, looked up, change not shown) above, with C1156Y counted along it
# Sequence of Macrophage colony-stimulating factor 1 receptor (Homo sapiens) (P07333 whole entry): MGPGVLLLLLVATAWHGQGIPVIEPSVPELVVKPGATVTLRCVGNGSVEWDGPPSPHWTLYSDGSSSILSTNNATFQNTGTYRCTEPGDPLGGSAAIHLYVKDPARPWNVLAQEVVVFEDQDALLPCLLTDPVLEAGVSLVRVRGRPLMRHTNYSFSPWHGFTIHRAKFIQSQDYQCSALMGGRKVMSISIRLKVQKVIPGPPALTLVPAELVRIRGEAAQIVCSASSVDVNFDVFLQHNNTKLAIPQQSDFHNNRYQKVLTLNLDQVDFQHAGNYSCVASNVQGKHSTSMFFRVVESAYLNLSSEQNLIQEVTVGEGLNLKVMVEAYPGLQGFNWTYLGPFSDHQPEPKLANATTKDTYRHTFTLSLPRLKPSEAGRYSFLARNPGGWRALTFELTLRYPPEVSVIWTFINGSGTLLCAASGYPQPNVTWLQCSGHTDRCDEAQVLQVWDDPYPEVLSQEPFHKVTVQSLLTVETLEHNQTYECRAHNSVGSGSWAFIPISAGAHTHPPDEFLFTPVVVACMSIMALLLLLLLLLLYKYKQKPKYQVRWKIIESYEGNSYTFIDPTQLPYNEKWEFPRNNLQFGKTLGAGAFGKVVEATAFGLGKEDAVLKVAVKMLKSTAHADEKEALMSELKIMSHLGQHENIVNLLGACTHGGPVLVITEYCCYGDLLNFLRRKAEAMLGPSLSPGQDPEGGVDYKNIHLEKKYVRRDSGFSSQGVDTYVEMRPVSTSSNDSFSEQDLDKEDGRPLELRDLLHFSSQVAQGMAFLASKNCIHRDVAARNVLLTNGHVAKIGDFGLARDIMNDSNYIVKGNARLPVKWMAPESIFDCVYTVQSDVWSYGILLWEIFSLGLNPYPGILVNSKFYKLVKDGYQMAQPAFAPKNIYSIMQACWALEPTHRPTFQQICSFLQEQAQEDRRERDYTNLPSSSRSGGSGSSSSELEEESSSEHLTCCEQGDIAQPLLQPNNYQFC
# Sequence of Receptor-type tyrosine-protein kinase FLT3 (Homo sapiens) (P36888 whole entry): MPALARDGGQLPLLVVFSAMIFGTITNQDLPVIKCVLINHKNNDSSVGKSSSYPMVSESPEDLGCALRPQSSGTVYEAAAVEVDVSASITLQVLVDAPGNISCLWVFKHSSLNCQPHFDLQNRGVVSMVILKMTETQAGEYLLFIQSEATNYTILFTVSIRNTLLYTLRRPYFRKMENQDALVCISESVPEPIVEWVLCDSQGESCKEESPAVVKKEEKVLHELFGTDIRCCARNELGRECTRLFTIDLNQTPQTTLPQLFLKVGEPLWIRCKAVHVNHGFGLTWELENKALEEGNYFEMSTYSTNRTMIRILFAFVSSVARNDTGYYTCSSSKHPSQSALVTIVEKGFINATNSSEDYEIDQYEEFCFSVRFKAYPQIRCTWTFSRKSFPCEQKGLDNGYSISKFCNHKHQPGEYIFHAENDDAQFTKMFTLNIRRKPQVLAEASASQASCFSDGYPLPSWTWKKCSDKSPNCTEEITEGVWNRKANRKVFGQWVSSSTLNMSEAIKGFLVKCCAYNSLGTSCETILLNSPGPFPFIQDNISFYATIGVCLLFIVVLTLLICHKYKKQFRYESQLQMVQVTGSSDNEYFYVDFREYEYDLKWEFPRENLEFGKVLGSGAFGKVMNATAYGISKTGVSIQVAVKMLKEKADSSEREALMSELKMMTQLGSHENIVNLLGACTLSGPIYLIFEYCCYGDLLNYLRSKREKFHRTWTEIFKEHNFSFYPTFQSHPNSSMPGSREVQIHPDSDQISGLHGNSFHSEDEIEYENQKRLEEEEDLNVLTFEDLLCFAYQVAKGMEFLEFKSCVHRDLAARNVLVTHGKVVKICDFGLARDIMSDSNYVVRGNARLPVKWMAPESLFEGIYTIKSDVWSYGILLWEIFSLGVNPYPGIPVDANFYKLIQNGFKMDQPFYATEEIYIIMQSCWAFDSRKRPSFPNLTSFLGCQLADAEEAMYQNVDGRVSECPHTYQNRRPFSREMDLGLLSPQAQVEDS
# Sequence of Serine/threonine-protein kinase SIK2 (Homo sapiens) (Q9H0K1 whole entry, looked up): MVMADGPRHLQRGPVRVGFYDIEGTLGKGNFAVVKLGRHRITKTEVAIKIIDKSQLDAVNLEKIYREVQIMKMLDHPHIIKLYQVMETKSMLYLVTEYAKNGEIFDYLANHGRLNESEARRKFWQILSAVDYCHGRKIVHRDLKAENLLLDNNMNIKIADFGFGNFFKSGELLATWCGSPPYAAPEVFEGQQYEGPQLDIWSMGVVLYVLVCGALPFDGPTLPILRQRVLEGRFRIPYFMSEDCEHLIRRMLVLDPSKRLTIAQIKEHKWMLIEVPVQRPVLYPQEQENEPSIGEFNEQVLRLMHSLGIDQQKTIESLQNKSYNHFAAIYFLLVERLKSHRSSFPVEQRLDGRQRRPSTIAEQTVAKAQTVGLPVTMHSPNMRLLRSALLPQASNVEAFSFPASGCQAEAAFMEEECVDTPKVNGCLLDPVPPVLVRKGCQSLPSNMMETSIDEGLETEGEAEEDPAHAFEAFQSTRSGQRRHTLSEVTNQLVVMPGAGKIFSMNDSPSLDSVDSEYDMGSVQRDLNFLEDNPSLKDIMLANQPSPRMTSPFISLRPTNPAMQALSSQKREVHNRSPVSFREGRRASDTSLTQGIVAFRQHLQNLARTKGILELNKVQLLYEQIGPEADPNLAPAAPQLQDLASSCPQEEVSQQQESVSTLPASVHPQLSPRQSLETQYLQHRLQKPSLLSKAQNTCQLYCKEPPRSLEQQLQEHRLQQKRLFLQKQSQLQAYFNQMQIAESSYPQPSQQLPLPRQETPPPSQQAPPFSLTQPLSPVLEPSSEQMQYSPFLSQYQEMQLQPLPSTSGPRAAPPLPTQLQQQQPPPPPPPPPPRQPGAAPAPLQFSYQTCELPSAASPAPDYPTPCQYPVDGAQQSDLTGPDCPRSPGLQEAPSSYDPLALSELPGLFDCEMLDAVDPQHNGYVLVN
# Sequence of ALK tyrosine kinase receptor (Homo sapiens), Q9UM73 [G1269A] (Q9UM73 whole entry G1269A): as the sequence (Q9UM73 whole entry, looked up, change not shown) above, with G1269A counted along it
# Sequence of ALK tyrosine kinase receptor (Homo sapiens), Q9UM73 [F1174L] (Q9UM73 whole entry F1174L): as the sequence (Q9UM73 whole entry, looked up, change not shown) above, with F1174L counted along it
structure (smiles),measurement,setting,value
CCc1cccc(CC)c1N1CCn2cc(-c3nc(Nc4ccc(N5CCN(C(C)=O)CC5)cc4OC)nc4[nH]ncc34)cc2C1=O,Activity,[1],< 10%
same,IC50,[2],0.823 µM
same,Activity,[3],Non-Toxic
same,IC50,[4],> 10 µM
same,Vd,[5],0.672 L/kg
same,Activity,[6],< 10%
same,Activity,[7],< 10%
same,Activity,[8],< 10%
same,Activity,[9],< 10%
same,MRT last at 24 h,[10],1.11 h
same,remaining at 5 min,[11],82.7%
same,Activity,[12],< 10%
same,half-life,[13],1.05 h
same,Activity,[14],< 10%
same,microsomal CLint,[15],39.4 µL/min/mg
same,Activity,[16],< 10%
same,Activity,[17],< 10%
same,Activity,[18],< 10%
same,MRT inf,[19],1.23 h
same,IC50,[20],0.0026 µM
same,remaining at 0.25 h,[21],64.6%
same,Activity,[22],< 10%
same,Activity,[23],< 10%
same,Activity,[24],< 10%
same,Activity,[25],< 10%
same,C0 at 24 h,[26],5240 ng/mL
